System: AMPA receptor
Experiment: rat cortical slice, responses to AMPA (apparent equilibrium constant from righthand shift in concentration-response curve)
Format: cell-based
Conditions: righthand shift in the AMPA concentration-response curve
Protocol: The compounds useful in this invention potently and selectively block responses to NMDA and/or AMPA in a brain slice from rat cortex, and inhibit the binding of agonists and antagonists to the strychnine-insensitive site present on the NMDA receptor and/or AMPA binding to rat forebrain membranes.
The effects of compounds of the invention on responses to NMDA and AMPA were assessed using the rat cortical slice as described by Wong et al., Proc. Natl. Acad. Sci. USA, 1986, 83, 7104. The apparent equilibrium constant (Kb) was calculated from the righthand shift in the NMDA or AMPA concentration-response curves produced by the compound under test.

O=C1Nc2cc(Cl)ccc2CC1[N+](=O)[O-] (stereo not shown) [Example 2, 7-Chloro-3-nitro-3,4-dihydroquinolin-2-one]
Kb: < 150 µM

From patent US5376748A, “Nitroquinolone derivatives” (Merck Sharp & Dohme Limited, priority 1992, dated 1994)
